Laboratory results reported in patent publication US9278118B2, “Pharmaceutical combination for the treatment and/or chemosensibilization of refractory tumors to anticancer drugs” (Centro de Ingenieria Genetica Y Biotecnologia, priority 2006, dated 2016).
Like-named read-outs stand apart in the source and are kept apart here.

Columns and labels:
[1] = tested on: H-125 or OCI-AML3 cells; test: Cell viability (MTS) assay, simultaneous P15 peptide + cytostatic drug, 72 hours; type: cell-based, human; details: H-125 or OCI-AML3 cells, 72 hours
Protocol: Finally, the cell viability and the IC50 values were determined as above described in this invention.

[2] = tested on: OCI-AML3 cells; test: Animal model of AML, P15 + anti-leukemic chemotherapeutics; type: in vivo, nude mice (Nu/Nu, BalBC); details: combination with P15, animal model of AML; FIG. 3
Protocol: (§1) The animal model used in this invention was based on the implantation of human tumors in nude mice (Nu/Nu, BalBC). […] After tumor debut (approx. 30 mm^3), treatment was started using the pharmaceutical combination described in this invention. To evaluate the antitumor effect of the pharmaceutical combination, the tumor mass volume was measured and the respective volume was calculated using the formule: V=widght^2×lenght/2.
(§2) After tumor debut, the ingredients of the pharmaceutical combination were administered as follow: The P15 peptide in saline solution was administered intraperitoneal at 0.5 mg/kg/day during 5 days. Concomitantly, intraperitoneal injection of cisplatin (FIG. 1A), or cyclophosphamide (FIG. 1B) or Mitomycin (FIG. 1C) were performed at 1 mg/kg/day in the same frequency. The cytostatic drugs are also solved in saline solution. Tumor volume was registered as described above in this invention.

[3] = tested on: H-125 cells; test: Cell viability (MTS) assay, sequential: P15 pre-treatment, then cytostatic drug; details: Homo sapiens, NCI-H125, read-out: IC50, Cytostatic drug alone
Protocol: (§5) Incubation of cell cultures was performed at 37° C. in 5% CO2.
(§6) For this purpose, 20 μl of Tetrazolium (MTS) (Promega) were added to the cells on each plate. […] Finally, the IC50 values were estimated from the respective dose-response curves using the “CurveExpert” software.
(§7) In this assay we evaluated the effect of the pharmaceutical combination in bypassing the chemoresistance phenomenon when ingredients are sequentially administered. For this purpose, H-125 cells were seeded at 2000 cells/well in 96-well plates and after 24 hours 20 μM of the P15 peptide was added. After 16 hours of incubation with the P15 peptide ingredient, cell monolayers were washed twice with saline solution. […] At the end, cell viability and the IC50 values for each cytostatic drug were determined as previously described in this invention. […] Furthermore, we evaluated the effect of P15 pre-treatment on SW948 cells which are intrinsically resistant to the effect of the cytostatic drugs.

[4] = tested on: SW948 cells; test: Cell viability (MTS) assay, P15 pre-treatment on intrinsic drug-refractory tumor cells; type: cell-based, human; details: Homo sapiens
Protocol: as §5, §6, §7

[5] = tested on: SW948 cells; test: In vivo chemosensibilization, SW948 tumors in nude mice, sequential administration; details: P15 0.5 mg/kg/day i.p. 5 days, then cytostatic 5 mg/kg/day 5 days, FIG. 2A-2C
Protocol: The animal model used in this invention was based on the implantation of human tumors in nude mice (Nu/Nu, BalBC). Briefly, 5×10^6 H-125 or OCI-AML3 cells were suspended in Phosphate Buffer Solution (PBS) and inoculated subcutaneously. After tumor debut (approx. 30 mm^3), treatment was started using the pharmaceutical combination described in this invention. To evaluate the antitumor effect of the pharmaceutical combination, the tumor mass volume was measured and the respective volume was calculated using the formule: V=widght^2×lenght/2.
For this purpose, 5×10^6 SW948 cells were implanted in nude mice as previously described in this invention. After tumor debut the pharmaceutical combination was sequentially administered as follow: First, the P15 peptide ingredient was administered intraperitoneal at 0.5 mg/kg/day during 5 days. Subsequently, cisplatin (FIG. 2A), Paclitaxel (FIG. 2B) and doxorubicin (FIG. 2C) were administered at 5 mg/kg/day during further 5 days. […] These findings also provide the evidences that the pharmaceutical combination in this invention is able to bypass the commonly observed intrinsic tumor resistance when the ingredients are sequentially administered.

[6] = tested on: H-125 or OCI-AML3 tumor cells; test: Cancer animal model, human tumor xenografted in nude mice, simultaneous administration; type: in vivo, nude mice (Nu/Nu, BalBC); details: administered along with P15; FIG. 4
Protocol: as §1, §2

[7] = tested on: Prohibitin; test: P15-regulated protein profile, nuclear extracts of H-125 cells; type: cell-based, human; details: up-regulated Prohibitin, P15 40 minutes
[8] = tested on: Y-box1 transcription factor; test: as above; type: cell-based, human; details: down-regulated Y-box1 transcription factor, P15 40 minutes
[9] = tested on: T-Plastin; test: as above; type: cell-based, human; details: down-regulated T-Plastin, P15 40 minutes
[10] = tested on: Eritropoietin precursor; test: as above; type: cell-based, human; details: down-regulated Eritropoietin precursor, P15 40 minutes
[11] = tested on: Translational controled tumor protein; test: as above; type: cell-based, human; details: down-regulated Translational controled tumor protein, P15 40 minutes
[12] = tested on: Proteasome activator complex; details: down-regulated Proteasome activator complex; H-125 cells, P15 40 minutes
Protocol: (§3) H-125 cells were treated or not with the P15 peptide ingredient of the pharmaceutical combination described in this invention during 40 minutes. Subsequently, cell monolayers were washed with PBS and cells were scrapped from the surface. […] To analyze the P15-regulated proteins, the respective nuclear protein extracts were alternatively solved by 2D bidimensional gels (pH 4-7) and/or Liquid chromatography (nano HPLC) coupled to Mass spectrometer.
(§4) For this purpose, nuclear protein extracts coming from H-125 cells treated or not with the P15 peptide ingredient were analyzed as previously described in this invention.

[13] = tested on: Gliceraldehyde 6-phosphate deshydrogenase; details: down-regulated Gliceraldehyde 6-phosphate deshydrogenase; H-125 cells, P15 40 minutes
Protocol: as §3, §4

[14] = tested on: Heat Shock Proteins (HSP-27, -70 y -90); details: down-regulated Heat Shock Proteins (HSP-27, -70 y -90); H-125 cells, P15 40 minutes
Protocol: as §3, §4

[15] = tested on: Tubulin beta-2; details: up-regulated Tubulin beta-2; H-125 cells, P15 40 minutes
Protocol: as §3, §4

[16] = tested on: Piruvate kinase; details: down-regulated Piruvate kinase; H-125 cells, P15 40 minutes
Protocol: as §3, §4

[17] = tested on: Tubulin alpha-1; details: up-regulated Tubulin alpha-1; H-125 cells, P15 40 minutes
Protocol: as §3, §4

[18] = tested on: Ubiquitin activated E1 enzyme; details: down-regulated Ubiquitin activated E1 enzyme; H-125 cells, P15 40 minutes
Protocol: as §3, §4

[19] = tested on: S-gluthathione transferase; details: down-regulated S-gluthathione transferase; H-125 cells, P15 40 minutes
Protocol: as §3, §4

[20] = tested on: Glucose-6-phosphate isomerase; details: down-regulated Glucose-6-phosphate isomerase; H-125 cells, P15 40 minutes
Protocol: as §3, §4

[21] = tested on: Tubulin beta-3; details: up-regulated Tubulin beta-3; H-125 cells, P15 40 minutes
Protocol: as §3, §4

[22] = tested on: Nucleofosmin; test: P15-regulated protein profile, nuclear extracts of H-125 cells; type: cell-based, human; details: down-regulated Nucleofosmin, P15 40 minutes
[23] = simultaneous P15 50 μM, read-out: IC50, Cytostatic drug + P15 (50 μM)
[24] = Homo sapiens, no P15, read-out: IC50, Cytostatic drug alone
[25] = read-out: IC50, Cytostatic drug + P15 (10 μM), simultaneous P15 10 μM

Molecule	IC50 [1, 23]	IC50 [1, 24]	IC50 [1, 25]	IC50 [3]	further results
Nc1ccn([C@@H]2O[C@H](CO)[C@@H](O)[C@@H]2O)c(=O)n1 [Cytarabine (AraC), cytarabine]	0.068 µM	1 µM	0.11 µM	0.98 µM	interaction with P15, antitumor effect in vivo [2]: great synergistic interaction
COc1cccc2c1C(=O)c1c(O)c3c(c(O)c1C2=O)C[C@@](O)(C(=O)CO)C[C@@H]3O[C@H]1C[C@H](N)[C@H](O)[C@H](C)O1 [Doxorubicin, doxorubicin]	0.076 µM	0.423 µM	0.2 µM	0.423 µM	IC50 ([4]; P15 pre-treatment, read-out: IC50, Cytostatic drug + P15 pre-treatment): 320 µM; IC50 ([4]; no P15 pre-treatment, read-out: IC50, Cytostatic drug alone): ≥ 1000 µM; chemosensibilization in vivo (tumor response to cytostatic) [5]: revert the chemorefractory phenotype
CC(C)C[C@H](NC(=O)[C@H](Cc1ccccc1)NC(=O)c1cnccn1)B(O)O [Velcade, Bortezomib]	0.7 µM	2 µM	1.2 µM	2 µM	
COc1cc([C@@H]2c3cc4c(cc3[C@@H](O[C@@H]3O[C@@H]5CO[C@@H](C)O[C@H]5[C@H](O)[C@H]3O)[C@H]3COC(=O)[C@H]23)OCO4)cc(OC)c1O [Etoposide, etoposide]	0.02 µM	0.78 µM	0.06 µM	0.561 µM	interaction with P15, antitumor effect in vivo [6]: synergistic interactions
O=c1[nH]cc(F)c(=O)[nH]1 [5-Fluorouracil, 5-fluorouracil]	0.06 µM	1.2 µM	0.42 µM	1.2 µM	
O=C1c2c(O)ccc(O)c2C(=O)c2c(NCCNCCO)ccc(NCCNCCO)c21 [Mitoxantrone, mitoxantrone]	0.032 µM	0.754 µM	0.064 µM	0.7 µM	interaction with P15, antitumor effect in vivo [2]: great synergistic interaction
CWMSPRHLGTC [P15]					Activation rate [7]: 2.28; Inhibition rate [8]: 3.33; Inhibition rate [9]: 3.34; Inhibition rate [10]: 120; Inhibition rate [11]: 4.32; Inhibition rate [12]: 3.35; Inhibition rate [13]: 6.62; Inhibition rate [14]: 2.5; Activation rate [15]: 2.56; Inhibition rate [16]: 8.34; Activation rate [17]: 3.23; Inhibition rate [18]: 2.49; Inhibition rate [19]: 4.87; Inhibition rate [20]: 8.53; Activation rate [21]: 3.15; Inhibition rate [22]: 48
